{"source": "patent US9572862B2", "about": "“Methods for promoting lipolysis and oxidation in liver and adipose tissue using catestatin” (The Regents of the University of California, priority 2012, dated 2017)", "key": {"[1]": {"system": "PC-12 neuroendocrine cells", "experiment": "cAMP production in PC-12 cells", "type": "cell-based", "details": "CST 100 nM, ISO 10 μM, 10 min"}, "3T3-L1 adipocytes": {"system": "3T3-L1 adipocytes", "experiment": "cAMP production in 3T3-L1 adipocytes", "type": "cell-based", "details": "CST 100 nM, ISO 10 μM, 10 min"}, "CST-KO mice": {"system": "CST-KO mice", "experiment": "ITT in insulin resistant CST-KO mice with CST, RI-CST or NSC-177941", "type": "in vivo", "details": "for insulin sensitivity during ITT: NCD-fed CST-KO mice, insulin 0.4 mU/g BW", "excerpt": "FIG. 16. […] Figures in parentheses indicate number of animals."}, "Chk2 protein kinase": {"molecular_target": "Chk2 protein kinase (Homo sapiens, UniProt O96017)", "sequence (O96017 whole entry)": "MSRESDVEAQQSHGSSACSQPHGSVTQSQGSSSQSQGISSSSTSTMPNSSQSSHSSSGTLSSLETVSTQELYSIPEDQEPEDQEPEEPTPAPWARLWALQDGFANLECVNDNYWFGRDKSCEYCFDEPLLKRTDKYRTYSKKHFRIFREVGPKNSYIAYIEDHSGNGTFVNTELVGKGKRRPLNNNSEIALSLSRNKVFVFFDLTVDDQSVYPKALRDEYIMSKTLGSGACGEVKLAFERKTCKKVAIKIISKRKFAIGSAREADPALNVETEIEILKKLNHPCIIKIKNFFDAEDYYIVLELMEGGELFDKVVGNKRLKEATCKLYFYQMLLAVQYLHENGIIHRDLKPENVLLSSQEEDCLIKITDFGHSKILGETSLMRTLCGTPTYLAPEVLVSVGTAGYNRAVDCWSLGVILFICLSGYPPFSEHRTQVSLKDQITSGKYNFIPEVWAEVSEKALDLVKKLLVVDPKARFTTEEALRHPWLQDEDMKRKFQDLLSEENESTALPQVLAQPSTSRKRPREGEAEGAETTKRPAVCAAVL", "details": "Jobson et al. (9); cited from earlier work"}, "[2]": {"experiment": "Screening of CST structural analogs for blood pressure reduction", "details": "in vivo"}, "primary adipocytes": {"system": "primary adipocytes", "experiment": "Lipolytic glycerol release from primary adipocytes", "type": "cell-based, mice", "details": "for effect on the lipolytic effect of isoproterenol: adipocytes, with isoproterenol 10 μM", "description": "Mice were fasted for 12 hr prior to blood draw. Triglycerides (TG) and non-esterified fatty acids (NEFA) were assayed using kits from Wako Diagnostics (Richmond, Va.). Glycerol was assayed using a kit from Sigma (St Louis, Mo.). Media from the explant cultures and mouse serum were analysed for glycerol and NEFA as a measure of lipolysis. ELISA kits were used to determine plasma levels of leptin, adiponectin (Millipore, Billerica, Mass.) and CST (Bachem, Torrance, Calif.). For CST assay, plasma samples and reference standards were passed through mini C18 columns and the flow-through fractions were assayed. The same kits were used for measurements in culture media.\nPrimary adipocytes were isolated from epididymal fat pads essentially as described (43). Adipose tissues from WT and Chga-KO mice were minced in Krebs-Ringer bicarbonate-Hepes (KRBH) buffer, pH 7.4, containing 10 mM bicarbonate, 30 mM Hepes, 200 nM adenosine, 2.5 mM glucose and 1% fatty-acid-free BSA, and digested for 30-40 min with Type I collagenase (10 mg/g tissue; Invitrogen, Carlsbad, Calif.) with gentle swirling in a 37° C. incubator. The digestion mixture was then filtered through a nylon strainer and centrifuged at 400×g for 1 min. The oily layer (released from broken cells) above floating fat cells was skimmed off, and fat cells were recovered from the top and washed three times with warm KRBH."}, "HFD-fed Chga-KO mice": {"system": "HFD-fed Chga-KO mice", "experiment": "Peptide supplementation to HFD-fed Chga-KO mice (insulin sensitivity)", "type": "in vivo", "details": "HFD (60%)-fed Chga-KO mice"}, "Chga-/- mice [3]": {"system": "Chga-/- mice", "details": "reference (8), cited from earlier work"}, "[4]": {"details": "reference (8); cited from earlier work"}, "Chga-/- mice [5]": {"system": "Chga-/- mice", "experiment": "Blood pressure in hypertensive Chga-KO mice", "type": "in vivo"}, "[6]": {"system": "STAT3 and AMPK phosphorylation", "experiment": "Stat3 and AMPK signaling in adipose explants from Ob/Ob mice", "type": "cell-based", "details": "CST in vivo, leptin 1 μM ex vivo 30 min", "description": "(§1) FIG. 9. Stat3 and AMPK signaling in the adipose tissue explants from DIO and Ob/Ob mice treated with saline, CST (in vivo) and leptin (ex vivo). Explants from DIO mice (A&B) and Ob/Ob mice (C&D) were incubated with saline or leptin (1 μM) for 30 min, homogenized and immunoblotted for phospho- and total Stat3 (A&C) as well as phospho- and total AMPK signals (B&D). Results are presented as the ratio of signal strength of phospho-over total.\n(§2) Adipose tissue explants were prepared as described (42). Epididymal fat pads from 12 hr fasted WT, Chga-KO, DIO and Ob/Ob mice with or without CST treatment were collected in Kreb-Ringer-phosphate (KRP) buffer containing 10 mM Hepes and 0.5% BSA. Tissues were minced to 1-2 mm size and treated with 100 nM CST, 1 μM leptin, or saline for 30 min (for signaling analysis) or 3 hr (for lipolysis and β-oxidation assays). Explants were also treated acutely with CST, leptin, a combination, or saline. At the end, incubation media were saved for analysis of glycerol and fatty acid release. Explants were washed prior to homogenization for immunoblotting and analysis of fatty acid oxidation.\n(§3) Adipose tissue explants after treatments ex vivo and tissues from mice treated in vivo were homogenized in a buffer containing phosphatase and protease inhibitors (20 mM Tris/HCl (pH 7.5), 250 mM sucrose, 2 mM EDTA, 2 mM EGTA, 2 mM Na3VO4, 10 mM NaF, 2 mM Na4P2O7, 1 mM phenylmethylsulfonyl fluoride, 20 μg/ml leupeptin, 10 μg/ml aprotinin, and 1 μM LR-microcystin) as described (38,44). Homogenates were subjected to SDS-PAGE and immunoblotted. Primary antibodies for AMPK and Stat3 were from Cell Signaling Technology (Beverly, Mass.). The chemiluminescence kit was from Pierce (Rockford, Ill.)."}, "[7]": {"system": "adipose tissue explants from Ob/Ob mice", "experiment": "Lipolysis and fatty acid oxidation in adipose explants of Ob/Ob mice", "type": "cell-based", "description": "(§4) FIG. 8. Lipolysis and fatty acid oxidation in the adipose tissue explants of DIO and Ob/Ob mice after treatment with saline or CST for 16 days. Explants were incubated with saline or leptin (1 μM) for 3 hr and the concentrations of glycerol (A&C) and NEFA (B&D) released into the media from DIO (A&B) and Ob/Ob (C&D) explants were determined as a measure of lipolysis. Homogenates of the explants from DIO (E) and Ob/Ob […] were used to determine their capacity for oxidation of U-^14C-palmitate in response to the treatment with saline, CST, leptin and CST+leptin. The ^14CO2 released was captured and counted as the measure of fatty acid oxidation.\nas §2\n(§5) Oxidation of radiolabeled palmitate in the homogenates of adipose tissue explants as described previously (45). For oxidation studies of cultured cells, HepG2 (hepatocytes) and 3T3-L1 preadipocytes were obtained from ATCC and cultured following supplier's protocol. Confluent 3T3-L1 cultures were differentiated into adipocytes by treating with a cocktail of dexamethasone (100 nM), IBMX ([…]) and insulin (100 nM) for 10 days. Media were then switched to serum-free DMEM with 1% BSA. Hepatocytes were assayed for lipogenesis and fat oxidation in response to CST treatment. Serum-free cultures were treated with CST (100 nM) for 24 hr followed by a 2 hr incubation with U^14C-palmitate (0.5 μCi/ml). Fatty acid oxidation in cells was determined by modifying a published method (46). Specifically, the culture media in 24-well plates were acidified with 10% HClO4 after incubation with the labeled fatty acid and immediately covered with a thick filter paper sheet (cut to size) soaked in 2 N NaOH and placed underneath the plastic lid. The whole plate was sealed with parafilm. After further incubation for 2 hr, the filter paper sheet was marked as circles around the rim of the wells and then the circles were excised. The filter discs were counted to determine the amount of ^14CO2 absorbed in the papers. Cells in the culture wells were lysed in 1 N NaOH and protein content was assayed using Folin's reagent (BioRad, Hercules, Calif.)."}, "[8]": {"system": "STAT3 and AMPK phosphorylation", "experiment": "Stat3 and AMPK signaling in adipose explants from DIO mice", "type": "cell-based", "details": "CST in vivo, leptin 1 μM ex vivo 30 min", "description": "as §1, §2, §3"}, "[9]": {"system": "adipose tissue explants from DIO mice", "experiment": "Lipolysis and fatty acid oxidation in adipose explants of DIO mice", "type": "cell-based", "description": "as §4, §2, §5"}, "[10]": {"system": "AMPK and Stat3 phosphorylation", "experiment": "AMPK and Stat3 signaling in adipose tissue explants from Chga-KO mice", "type": "cell-based", "details": "leptin 1 μM 30 min", "description": "FIG. 6. Regulation of AMPK and Stat3 signaling by CST in adipose tissue explants. Explants from Chga-KO mice were treated with saline or CST (100 nM for 30 min) and immunoblotted for pAMPK and AMPK (A). Adipose explants from WT and Chga-KO mice were immunoblotted for pAMPK and AMPK after treatment with saline or leptin (1 μM) for 30 min (B). pAMPK and AMPK (C) and pStat3 and Stat3 (D) signaling in adipose explants from WT and Chga-KO mice after treatment for 30 min with saline, CST (100 nM), leptin (1 μM) or leptin plus CST.\nas §2, §3"}, "[11]": {"details": "CST in vivo 16 days, leptin 1 μM ex vivo 3 hr"}}, "note": "Entries after “also recorded” stand apart in the source; their conditions may differ. Non-standard residues stand in square brackets, D forms with d."}
{"compound": "CC(C)NCC(O)c1ccc(O)c(O)c1", "note": "(racemic) [isoproterenol, (RS)-4-[1-hydroxy-2-(isopropylamino)ethyl]benzene-1,2-diol, reference compound]", "values": [{"measurement": "cAMP production", "setting": "[1]", "value": "stimulated"}, {"measurement": "cAMP production", "setting": "3T3-L1 adipocytes", "value": "stimulated"}]}
{"compound": "C/C(=N\\N=C(N)N)c1cccc(NC(=S)Nc2cccc(/C(C)=N/N=C(N)N)c2)c1", "note": "[NSC-177941, 1,3-bis[3-[(E)-N-(diaminomethyllideneamino)-C-methylcarbonimidoyl]phenyl]thiourea]", "values": [{"measurement": "effect on insulin sensitivity in the first 30 min", "setting": "CST-KO mice; ITT in CST-KO mice", "value": "ineffective"}, {"measurement": "time window of increase in insulin sensitivity", "setting": "CST-KO mice; ITT in CST-KO mice", "value": "30 to 90", "unit": "min"}, {"measurement": "insulin sensitivity during ITT", "setting": "CST-KO mice", "value": "transient increase in insulin sensitivity"}, {"measurement": "insulin sensitivity during ITT", "setting": "CST-KO mice; listed as NSC-177941", "value": "Improvement in insulin sensitivity"}, {"measurement": "inhibition of Chk2 protein kinase activity", "setting": "Chk2 protein kinase", "value": "inactive"}, {"measurement": "blood pressure", "setting": "[2]", "value": "reducing blood pressure"}]}
{"compound": "Cc1ccc(N(CC2=NCCN2)c2cccc(O)c2)cc1", "note": "[phentolamine, 3-[(4,5-dihydro-1H-imidazol-2-ylmethyl)(4-methylphenyl)amino]phenol]", "values": [{"measurement": "effect on the lipolytic effect of isoproterenol", "setting": "primary adipocytes", "value": "potentiated"}, {"measurement": "glycerol release (lipolysis)", "setting": "primary adipocytes; primary adipocytes, substance alone", "value": "stimulated lipolysis"}]}
{"compound": "CNC[C@H](O)c1cccc(O)c1", "note": "[phenylephrine, (R)-3-[-1-hydroxy-2-(methylamino)ethyl]phenol]", "values": [{"measurement": "effect on the lipolytic effect of isoproterenol", "setting": "primary adipocytes", "value": "dampened"}]}
{"compound": "PST: anti-insulin CHGA-derived peptide pancreastatin (CHGA250-301) [reference compound]", "values": [{"measurement": "insulin sensitivity (GTT)", "setting": "HFD-fed Chga-KO mice", "value": "reversed the phenotype"}]}
{"compound": "amino-l372qpGpGrfGyararfslkmss352-carboxyl (SEQ ID NO:27) (H-[dL][dQ][dP]G[dP]G[dR][dF]G[dY][dA][dR][dA][dR][dF][dS][dL][dK][dM][dS][dS]-OH; SMILES CSCC[C@@H](NC(=O)[C@@H](CCCCN)NC(=O)[C@@H](CC(C)C)NC(=O)[C@@H](CO)NC(=O)[C@@H](Cc1ccccc1)NC(=O)[C@@H](CCCNC(=N)N)NC(=O)[C@@H](C)NC(=O)[C@@H](CCCNC(=N)N)NC(=O)[C@@H](C)NC(=O)[C@@H](Cc1ccc(O)cc1)NC(=O)CNC(=O)[C@@H](Cc1ccccc1)NC(=O)[C@@H](CCCNC(=N)N)NC(=O)CNC(=O)[C@H]1CCCN1C(=O)CNC(=O)[C@H]1CCCN1C(=O)[C@@H](CCC(N)=O)NC(=O)[C@H](N)CC(C)C)C(=O)N[C@H](CO)C(=O)N[C@H](CO)C(=O)O) [RI-CST, retro-inverso peptide equivalent of human CST]", "values": [{"measurement": "period of BP suppression", "setting": "Chga-/- mice [3]; compared to CST", "value": "> 8", "unit": "h"}, {"measurement": "SBP", "setting": "Chga-/- mice [3]; hypertensive Chga-KO mice", "value": "functional in reducing SBP"}, {"measurement": "persistence of the insulin-sensitizing effect", "setting": "CST-KO mice; ITT in CST-KO mice", "value": "persisted throughout the experimental period"}, {"measurement": "insulin sensitivity during ITT", "setting": "CST-KO mice", "value": "increasing sensitivity to insulin; also recorded: Improvement in insulin sensitivity"}, {"measurement": "protease degradation", "setting": "[4]", "value": "fairly resistant"}, {"measurement": "interval for which the therapeutic BP effect was sustained", "setting": "Chga-/- mice [5]; R-I versus W-T isoform", "value": "> 8", "unit": "h"}, {"measurement": "high BP phenotype", "setting": "Chga-/- mice [5]; monogenic model of hypertension", "value": "effective in rescuing (reducing) the high BP phenotype"}]}
{"compound": "leptin: adipokine hormone, ligand of leptin receptor (Ob-R)", "values": [{"measurement": "AMPK phosphorylation", "setting": "[6]", "value": "stimulated phosphorylation"}, {"measurement": "STAT3 phosphorylation", "setting": "[6]", "value": "stimulated phosphorylation"}, {"measurement": "palmitate oxidation", "setting": "[7]", "value": "stimulatory for oxidation"}, {"measurement": "lipolysis (glycerol and NEFA release)", "setting": "[7]; [11]", "value": "stimulated lipolysis"}, {"measurement": "AMPK phosphorylation", "setting": "[8]", "value": "did not stimulate"}, {"measurement": "STAT3 phosphorylation", "setting": "[8]", "value": "did not stimulate"}, {"measurement": "palmitate oxidation", "setting": "[9]", "value": "neither CST nor leptin alone stimulated oxidation"}, {"measurement": "NEFA release in the media", "setting": "[9]; [11]", "value": "did not stimulate lipolysis"}, {"measurement": "glycerol release in the media", "setting": "[9]; [11]", "value": "did not stimulate lipolysis"}, {"measurement": "phosphorylation of AMPK following acute leptin treatment, compared to WT", "setting": "[10]", "value": "decreased"}, {"measurement": "phosphorylation of STAT3 following acute leptin treatment, compared to WT", "setting": "[10]", "value": "decreased"}]}
